Experimental data: ChEMBL document CHEMBL5113390, “Design, synthesis and antitumor evaluation of novel 1H-indole-2-carboxylic acid derivatives targeting 14-3-3η protein” (Eur J Med Chem, 2022)

Legend:
Hep 3B2 [1] = experiment: Induction of apoptosis in human Hep3B cells assessed as early apoptotic cells at 2.5 uM measured after 48 hrs by Annexin V/FITC-PI staining based flow cytometry assay (reference value: 6.65%); assay type: functional
Hep 3B2 [2] = experiment: Induction of apoptosis in human Hep3B cells assessed as viable cells at 1 uM measured after 48 hrs by Annexin V/FITC-PI staining based flow cytometry assay (reference value: 90.09%); assay type: functional; settings: read-out: Activity
Hep 3B2 [3] = experiment: Antiproliferative activity against human Hep3B cells assessed as reduction in cell viability measured after 7 days by crystal violet staining based assay; assay type: functional; settings: dose 1-10 µM, time 7.0 day, DDE = dose-dependent effect
Hep 3B2 [4] = experiment: Induction of apoptosis in human Hep3B cells assessed as viable cells at 10 uM measured after 48 hrs by Annexin V/FITC-PI staining based flow cytometry assay (reference value: 90.09%); assay type: functional; settings: read-out: Activity
Hep 3B2 [5] = experiment: Inhibition of cell invasion in human Hep3B cells incubated for 72 hrs by crystal violet staining based transwell assay; assay type: functional; settings: dose 1-10 µM, DDE = dose-dependent effect
Hep 3B2 [6] = experiment: Induction of cell cycle arrest in human Hep3B cells assessed as accumulation at G0/G1 phase at 1 uM incubated for 48 hrs by flow cytometry analysis (reference value: 60.85 %); assay type: functional
Hep 3B2 [7] = experiment: Induction of cell cycle arrest in human Hep3B cells assessed as accumulation at G2/M phase at 5 uM incubated for 48 hrs by flow cytometry analysis (reference value: 8.59 %); assay type: functional
HepG2 = experiment: Antiproliferative activity against human HepG2 cells assessed as reduction in cell viability incubated for 72 hrs by MTT assay; assay type: functional, cell-based; settings: HepG2, 72 h
SMMC-7721 = experiment: Antiproliferative activity against human SMMC-7721 cells assessed as reduction in cell viability incubated for 72 hrs by MTT assay; assay type: functional, cell-based; settings: SMMC-7721, 72 h
hERG = experiment: Selectivity ratio of IC50 for inhibition of hERG by automated patch clamp analysis to IC50 for antiproliferative activity against human SNU-387 cells assessed as reduction in cell viability incubated for 72 hrs by MTT assay; assay type: toxicity, cell-based; settings: read-out: Ratio IC50
[8] = Metabolic stability in rat liver microsomes assessed as half life; assay type: ADME, Microsome
Hep 3B2 [9] = experiment: Induction of cell cycle arrest in human Hep3B cells assessed as accumulation at G0/G1 phase at 2.5 uM incubated for 48 hrs by flow cytometry analysis (reference value: 60.85 %); assay type: functional
Hep 3B2 [10] = experiment: Induction of apoptosis in human Hep3B cells assessed as early apoptotic cells at 10 uM measured after 48 hrs by Annexin V/FITC-PI staining based flow cytometry assay (reference value: 6.65%); assay type: functional
14-3-3 protein eta = target: T1, 14-3-3 protein eta (Homo sapiens, UniProt Q04917); experiment: Binding affinity to 14-3-3 eta (unknown origin) assessed as dissociation constant by biolayer interferometry assay
T1 sequence (Q04917 whole entry): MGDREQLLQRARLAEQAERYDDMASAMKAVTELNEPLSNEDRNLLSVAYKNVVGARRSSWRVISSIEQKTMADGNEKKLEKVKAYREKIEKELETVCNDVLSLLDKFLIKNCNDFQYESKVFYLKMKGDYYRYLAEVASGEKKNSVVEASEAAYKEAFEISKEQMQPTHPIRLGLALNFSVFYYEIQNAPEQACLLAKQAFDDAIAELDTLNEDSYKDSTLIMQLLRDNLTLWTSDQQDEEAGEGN

Hep 3B2 [11] = experiment: Induction of cell cycle arrest in human Hep3B cells assessed as accumulation at G2/M phase at 1 uM incubated for 48 hrs by flow cytometry analysis (reference value: 8.59 %); assay type: functional
Hep 3B2 [12] = experiment: Induction of apoptosis in human Hep3B cells assessed as necrotic cells at 10 uM measured after 48 hrs by Annexin V/FITC-PI staining based flow cytometry assay (reference value: 0.12%); assay type: functional
Hep 3B2 [13] = experiment: Induction of cell cycle arrest in human Hep3B cells assessed as accumulation at S phase at 10 uM incubated for 48 hrs by flow cytometry analysis (reference value: 30.56 %); assay type: functional
Hep 3B2 [14] = experiment: Induction of cell cycle arrest in human Hep3B cells assessed as accumulation at S phase at 2.5 uM incubated for 48 hrs by flow cytometry analysis (reference value: 30.56 %); assay type: functional
Hep 3B2 [15] = experiment: Induction of apoptosis in human Hep3B cells assessed as early apoptotic cells at 5 uM measured after 48 hrs by Annexin V/FITC-PI staining based flow cytometry assay (reference value: 6.65%); assay type: functional
[16] = target: T2, 14-3-3 protein eta (Homo sapiens) (UniProt Q04917); experiment: Inhibition of 14-3-3 eta in human Hep3B cells assessed as reduction in ERK phosphorylation measured after 24 hrs by western blot analysis; assay type: cell-based; settings: dose 0.5-5 µM, DDE = dose-dependent effect
T2 sequence (whole entry): T1 sequence (Q04917 whole entry)

Hep 3B2 [17] = experiment: Induction of apoptosis in human Hep3B cells assessed as late apoptotic cells at 1 uM measured after 48 hrs by Annexin V/FITC-PI staining based flow cytometry assay (reference value: 3.14%); assay type: functional

IC50 (HepG2): 3.43 µM
IC50 (SMMC-7721): 2.92 µM
half-life [8]: 9.25 min
Kd (14-3-3 protein eta): 35 µM
inhibition [16]: Dde
Structure (SMILES): COc1cccc(CNCc2c(C(=O)O)n(Cc3ccc(C)cc3)c3cc(C(C)C)ccc23)c1
Activity (Hep 3B2 [1]): 8.74%
viability at 1 µM (Hep 3B2 [2]): 88%
Activity (Hep 3B2 [3]): Dde
viability at 10 µM (Hep 3B2 [4]): 61.9%
inhibition (Hep 3B2 [5]): Dde
Activity (Hep 3B2 [6]): 58.63%
Activity (Hep 3B2 [7]): 3.79%
selectivity ratio at 72 h (hERG): 6.32
Activity (Hep 3B2 [9]): 59.12%
Activity (Hep 3B2 [10]): 21.73%
Activity (Hep 3B2 [11]): 5.79%
Activity (Hep 3B2 [12]): 2.82%
Activity (Hep 3B2 [13]): 29.71%
Activity (Hep 3B2 [14]): 36.4%
Activity (Hep 3B2 [15]): 11.22%
Activity (Hep 3B2 [17]): 4.86%
